How the values were obtained:
Format in all cases: cell-based, human
[1] = test system: XG-1, XG-7 and OPM-2 cells; test: Cell cycle analysis (BrdU incorporation/DAPI, flow cytometry); conditions: IC50 Ironomycin, 72 hours
Experimental: XG-1, XG-7 and OPM-2 cells were incubated with vehicle or with IC50 Ironomycin for 72 hours. Cell cycle was analyzed using flow cytometry, S phase was stained by an anti-BrdU antibody after BrdU incorporation and DNA content was strained by 4′,6-diamidino-2-phénylindole (DAPI). Histograms represent the mean percentage and SD of each cell cycle phase of three independent experiments. * and ** indicate a significant difference of P<0.05 and P<0.01, respectively with paired student t-test.
The cell cycle progression was studied by flow cytometry using the Apoptosis, DNA Damage, and Cell Proliferation Kit (562253, Becton Dickinson). Briefly, cells were labeled with bromodeoxyuridine (BrdU), an analog of the DNA precursor thymidine that can be incorporated into newly synthesized DNA and detected with an antibody against BrdU to measure cell proliferation. After this labeling, the cells were fixed, permeabilized and treated with DNase to expose the BrdU epitopes. Following this treatment, cells were simultaneously stained with fluorochrome-labeled anti-BrdU, anti-cleaved Poly A DP-ribose polymerase 1 (PARP), anti-H2AX phosphorylated at serine 139. They were also stained with DAPI to determine DNA content. Finally, cells were resuspended in staining buffer and analyzed by flow cytometry (Fortessa, Becton Dickinson).

[2] = test system: MMSET (isoforms I and II); test: Western blot of MMSET protein level; conditions: MM cell lines with t(4; 14) translocation, 24H
Experimental: (§1) Cells were treated with iron chelators (80 μM Deferasirox), and Ironomycin (IC50 and 200 nM) during 24H. Protein levels of MMSET (isoforms I and II), MYC, H3K36me3 and H3K27me3 were analyzed by western blot. MMSET (isoforms I and II) and MYC signal were normalized by α-tubulin protein level, H3K36me3 and H3K27me3 signal were normalized by total histone 3 protein level.
(§2) The total cell lysates were obtained with RIPA 1× lysis buffer (#9806, Cell Signaling®) according with the supplier recommendations.
(§3) Protein lysates migrate on 10% polyacrylamide gel (NP-0301, Novex, Life Technologies®), in MOPS 1× running buffer (NP0001, Novex, Life Technologies®) or MES 1× running buffer NP-0002, Novex, Life Technologies®) and proteins are transferred to nitrocellulose membrane (1B301001, I-Blot Transfert Starck, NuPAGE, Life Technologies®). The primary antibodies mouse-anti-phospho-Histone H2A.X (Ser139) clone JBW301 ( 1/1000, Merck Millipore), anti-H3K36me3 (#ab9050, abcam®), anti-H3K27me3 (#9733, Cell Signaling®), anti-MMSET (#65127, Cell Signaling® et ab75359, abcam), anti-MYC (#5605, Cell Signaling®) were incubated in TBS-Tween 20 0.1% (Tris-Buffered Saline, pH 7.4) with 5% non-fat milk or Bovine serum albumin (Sigma-Aldrich, A7906). […] Quantification of protein levels was performed with Image J® software (National Institutes of Health, Bethesda, MD, USA).

H3K36me3 = test: Western blot of histone methylation; conditions: 24H
Experimental: as §1, §2, §3

primary MM cells = test: Assay on primary MM cells of patients (flow cytometry); conditions: n=5, with IL-6
Experimental: Primary MM cells were treated with Ironomycin (A) or AM-23 (B) and incubated during 96H with IL-6. The toxicity on MM cells and non-MM cells was analyzed by flow cytometry and expressed in % of control.
Bone marrow samples were collected after patients' written informed consent in accordance with the Declaration of Helsinki and institutional research board approval from Montpellier University hospital. Cells are obtained from […] of 5 patients with MM. Cells are obtained by density gradient separation and qualified by Flow cytometry.
Cells are cultured in Gibco® RPMI-1640 (Glutamax) medium (#6187-010) with 10% FBS at a density of 0.5×10^6 Cell/mL with 2 ng/mL of interleukin-6. Cells are seeded 24H after thawing and treated with various compounds during 72H.
Total cells were counted with trypan blue and stained with the panel CD38-APC, CD138-PE (Beckman coulter) and analyzed by flow cytometry (Fortessa cytometer, BD Pharmigen). Tumorous MM cells were gated on CD38+ and CD138+.

[3] = test system: CD34+ cells (normal hematopoietic progenitors)
Experimental: Hematopoietic progenitor colony-forming units assay were performed with CD34+ cells from apheresis of 5 donors. Cells were cultured in hydroxyl-methyl-cellulose medium with or without conventional chemotherapy or Ironomycin (A) or AM-23 (B). CFU-C, CFU-E/BFU-E and CFU-GM, -G, -M were counted after 14 days culture. N=5.

[4] = test system: XG2 melphalan resistant (XG2 Melph R) cell line; test: Drug combination concentration matrix, viability by ATP quantification, Bliss synergy; conditions: melphalan resistant cell line XG2 MeIR, 96 h
Experimental: XG-7 or XG2 WT (XG2 neg) or XG2 melphalan resistant (XG2 Melph R) cell lines were respectively treated with increasing concentrations of ironomycin combined with melphalan during 96 h and cell viability was tested by ATP quantification to obtain the viability matrix. The synergy matrix was calculated as described in Material and Methods.
HMCL cell lines were cultured for 4 days in 96-well flat-bottom microtiter plates in RPMI 1640 medium or DMEM medium, 10% or 20% FCS (control medium) in the presence of various compounds. The number of viable cells in culture was determined using the Cell Titer-Glo Luminescent Cell Viability Assay from Promega, Madison, WI, USA using a Centro LB 960 luminometer (Berthold Technologies, Bad Wildbad, Germany).
The interaction between the drugs tested in vitro was investigated with a concentration matrix test, in which increasing concentration of each single drug were assessed with all possible combinations of the other drugs. For each combination, the percentage of expected growing cells in the case of effect independence was calculated according to the Bliss equation (Combes et al., 2019): […]
where fuC is the expected fraction of cells unaffected by the drug combination in the case of effect independence, and fuA and fuB are the fractions of cells unaffected by treatment A and B, respectively. […]

With `C#CCN[C@@H]1C=C[C@]2(O[C@H]([C@@H](CC)C(=O)[C@@H](C)[C@@H](O)[C@H](C)[C@@H]3O[C@@H]([C@@H](CC)C(=O)O)CC[C@@H]3C)[C@@H](C)C[C@H]2C)O[C@@]12CC[C@@](C)([C@H]1CC[C@](O)(CC)[C@H](C)O1)O2` [Ironomycin] the “proliferation of MM cells (cell cycle)” value [1] was “inhibition of proliferation of MM cells”, the “expression of MMSET” value [2] was “downregulates the expression of MMSET” and the H3K36 methylation (H3K36me3) was “significant deregulation of H3K36 methylation”. For the same compound, the “toxicity on primary MM cells of patients” value (primary MM cells) was “validated the therapeutic interest”, the “toxicity on normal hematopoietic progenitors” value [3] was “low toxicity” and the “interaction effect, combined with melphalan” value [4] was “remains synergistic”.
